Test results reported in patent publication US20140088192A1, “SUBCUTANEOUSLY INFUSIBLE LEVODOPA PRODRUG COMPOSITIONS AND METHODS OF INFUSION” (SynAgile Corporation, priority 2010, published 2014).

Columns and labels:
[1] = Hydrolysis of LDEE salts to LD in aqueous solution, monitored by HPLC; type: physicochemical
[2] = pH change of LDEE.HCl solutions on holding; type: physicochemical; conditions: 40° C., 0 h
Method: An about 2.6 M LDEE.HCl pH 2.1 aqueous solution was prepared by dissolving 1.506 g LDEE in 1.3 mL of aqueous 5M HCl and adjusting the pH by adding 0.24 μL of 1 M HCl. […] After 24 hours, the pH was 2.0.
To determine whether hydrolysis of subcutaneously infusible solutions of 0.95 M and 0.48 M LDEE.HCl concentrations excessively lowers their pH or drives their LD concentration beyond the saturation point where LD could precipitate, their starting pH of less <3 adjusted by adding an about 1.5 M trisodium citrate solution, were kept at 40° C. for 24 hrs.

CCOC(=O)[C@@H](N)Cc1ccc(O)c(O)c1.Cl [LDEE.HCl, LDEE Hydrochloride]
LD/LDEE HPLC peak ratio ([1]; 0.48M LDEE•HCl, 40° C., 0 hrs, initial pH 4.2): 0.1292
LD/LDEE HPLC peak ratio ([1]; 0.48M LDEE•HCl, 40° C., 0 hrs, initial pH 4.4): 0.1309
LD/LDEE HPLC peak ratio ([1]; 0.48M LDEE•HCl, 40° C., 0 hrs, initial pH 4.6): 0.133
LD/LDEE HPLC peak ratio ([1]; 0.48M LDEE•HCl, 40° C., 0 hrs, initial pH 4.8): 0.1352
LD/LDEE HPLC peak ratio ([1]; 0.48M LDEE•HCl, 40° C., 0 hrs, initial pH 5): 0.1418
LD/LDEE HPLC peak ratio ([1]; 0.48M LDEE•HCl, 40° C., 0 hrs, initial pH 5.3): 0.1547
LD/LDEE HPLC peak ratio ([1]; 0.48M LDEE•HCl, 40° C., 0 hrs, initial pH 5.6): 0.1902
LD/LDEE HPLC peak ratio ([1]; 0.48M LDEE•HCl, 40° C., 2 hrs, initial pH 4.2): 0.2171
LD/LDEE HPLC peak ratio ([1]; 0.48M LDEE•HCl, 40° C., 2 hrs, initial pH 4.4): 0.2636
LD/LDEE HPLC peak ratio ([1]; 0.48M LDEE•HCl, 40° C., 2 hrs, initial pH 4.6): 0.2998
LD/LDEE HPLC peak ratio ([1]; 0.48M LDEE•HCl, 40° C., 2 hrs, initial pH 4.8): 0.3758
LD/LDEE HPLC peak ratio ([1]; 0.48M LDEE•HCl, 40° C., 2 hrs, initial pH 5): 0.5202
LD/LDEE HPLC peak ratio ([1]; 0.48M LDEE•HCl, 40° C., 2 hrs, initial pH 5.3): 0.8609
LD/LDEE HPLC peak ratio ([1]; 0.48M LDEE•HCl, 40° C., 2 hrs, initial pH 5.6): 1.4028
LD/LDEE HPLC peak ratio ([1]; 0.48M LDEE•HCl, 40° C., 6 hrs, initial pH 4.2): 0.3079
LD/LDEE HPLC peak ratio ([1]; 0.48M LDEE•HCl, 40° C., 6 hrs, initial pH 4.4): 0.3994
LD/LDEE HPLC peak ratio ([1]; 0.48M LDEE•HCl, 40° C., 6 hrs, initial pH 4.6): 0.4804
LD/LDEE HPLC peak ratio ([1]; 0.48M LDEE•HCl, 40° C., 6 hrs, initial pH 4.8): 0.6546
LD/LDEE HPLC peak ratio ([1]; 0.48M LDEE•HCl, 40° C., 6 hrs, initial pH 5): 0.9805
LD/LDEE HPLC peak ratio ([1]; 0.48M LDEE•HCl, 40° C., 6 hrs, initial pH 5.3): 1.7239
LD/LDEE HPLC peak ratio ([1]; 0.48M LDEE•HCl, 40° C., 6 hrs, initial pH 5.6): 2.8727
LD/LDEE HPLC peak ratio ([1]; 0.48M LDEE•HCl, 40° C., 24 hrs, initial pH 4.2): 0.8294
LD/LDEE HPLC peak ratio ([1]; 0.48M LDEE•HCl, 40° C., 24 hrs, initial pH 4.4): 1.1405
LD/LDEE HPLC peak ratio ([1]; 0.48M LDEE•HCl, 40° C., 24 hrs, initial pH 4.6): 1.415
LD/LDEE HPLC peak ratio ([1]; 0.48M LDEE•HCl, 40° C., 24 hrs, initial pH 4.8): 1.9804
LD/LDEE HPLC peak ratio ([1]; 0.48M LDEE•HCl, 40° C., 24 hrs, initial pH 5): 3.0727
LD/LDEE HPLC peak ratio ([1]; 0.48M LDEE•HCl, 40° C., 24 hrs, initial pH 5.3): 5.6312
LD/LDEE HPLC peak ratio ([1]; 0.48M LDEE•HCl, 40° C., 24 hrs, initial pH 5.6): 9.6563
LD/LDEE HPLC peak ratio ([1]; 0.95M LDEE•HCl, 40° C., 0 hrs, initial pH 4.2): 0.1238
LD/LDEE HPLC peak ratio ([1]; 0.95M LDEE•HCl, 40° C., 0 hrs, initial pH 4.4): 0.1252
LD/LDEE HPLC peak ratio ([1]; 0.95M LDEE•HCl, 40° C., 0 hrs, initial pH 4.6): 0.128
LD/LDEE HPLC peak ratio ([1]; 0.95M LDEE•HCl, 40° C., 0 hrs, initial pH 4.8): 0.1354
LD/LDEE HPLC peak ratio ([1]; 0.95M LDEE•HCl, 40° C., 0 hrs, initial pH 5): 0.1467
LD/LDEE HPLC peak ratio ([1]; 0.95M LDEE•HCl, 40° C., 0 hrs, initial pH 5.3): 0.1628
LD/LDEE HPLC peak ratio ([1]; 0.95M LDEE•HCl, 40° C., 0 hrs, initial pH 5.6): 0.1909
LD/LDEE HPLC peak ratio ([1]; 0.95M LDEE•HCl, 40° C., 2 hrs, initial pH 4.2): 0.2073
LD/LDEE HPLC peak ratio ([1]; 0.95M LDEE•HCl, 40° C., 2 hrs, initial pH 4.4): 0.2404
LD/LDEE HPLC peak ratio ([1]; 0.95M LDEE•HCl, 40° C., 2 hrs, initial pH 4.6): 0.2994
LD/LDEE HPLC peak ratio ([1]; 0.95M LDEE•HCl, 40° C., 2 hrs, initial pH 4.8): 0.3995
LD/LDEE HPLC peak ratio ([1]; 0.95M LDEE•HCl, 40° C., 2 hrs, initial pH 5): 0.5443
LD/LDEE HPLC peak ratio ([1]; 0.95M LDEE•HCl, 40° C., 2 hrs, initial pH 5.3): 0.8361
LD/LDEE HPLC peak ratio ([1]; 0.95M LDEE•HCl, 40° C., 2 hrs, initial pH 5.6): 1.3007
LD/LDEE HPLC peak ratio ([1]; 0.95M LDEE•HCl, 40° C., 6 hrs, initial pH 4.2): 0.2872
LD/LDEE HPLC peak ratio ([1]; 0.95M LDEE•HCl, 40° C., 6 hrs, initial pH 4.4): 0.3618
LD/LDEE HPLC peak ratio ([1]; 0.95M LDEE•HCl, 40° C., 6 hrs, initial pH 4.6): 0.4867
LD/LDEE HPLC peak ratio ([1]; 0.95M LDEE•HCl, 40° C., 6 hrs, initial pH 4.8): 0.7068
LD/LDEE HPLC peak ratio ([1]; 0.95M LDEE•HCl, 40° C., 6 hrs, initial pH 5): 1.0212
LD/LDEE HPLC peak ratio ([1]; 0.95M LDEE•HCl, 40° C., 6 hrs, initial pH 5.3): 1.6832
LD/LDEE HPLC peak ratio ([1]; 0.95M LDEE•HCl, 40° C., 6 hrs, initial pH 5.6): 2.7417
LD/LDEE HPLC peak ratio ([1]; 0.95M LDEE•HCl, 40° C., 24 hrs, initial pH 4.2): 0.7792
LD/LDEE HPLC peak ratio ([1]; 0.95M LDEE•HCl, 40° C., 24 hrs, initial pH 4.4): 1.0438
LD/LDEE HPLC peak ratio ([1]; 0.95M LDEE•HCl, 40° C., 24 hrs, initial pH 4.6): 1.4684
LD/LDEE HPLC peak ratio ([1]; 0.95M LDEE•HCl, 40° C., 24 hrs, initial pH 4.8): 2.2128
LD/LDEE HPLC peak ratio ([1]; 0.95M LDEE•HCl, 40° C., 24 hrs, initial pH 5): 3.2875
LD/LDEE HPLC peak ratio ([1]; 0.95M LDEE•HCl, 40° C., 24 hrs, initial pH 5.3): 5.6263
LD/LDEE HPLC peak ratio ([1]; 0.95M LDEE•HCl, 40° C., 24 hrs, initial pH 5.6): 9.5612
LD concentration versus estimated saturation concentration ([1]; 0.95 M and 0.48 M, 40° C., 24 hrs, up to about pH 5.5): remained below the estimated saturation concentration
% of LDEE.HCl hydrolyzed in the 21 week period, in addition to initial 0.16% ([1]; 2.4 M, pH 4.0, about 4° C.): 1.34%
% of LDEE.HCl hydrolyzed in the 21 week period, in addition to initial 0.15% ([1]; 2.5 M, pH 3.0, about 4° C.): 0.36%
% of the LDEE.HCl hydrolyzed to LD ([1]; 2.5 M, pH 4.5 citrate, 24 hours at 23±2° C.): 0.39%
pH of about 0.48M LDEE•HCl Solution ([2]; starting pH 4.19): 4.19
pH of about 0.95M LDEE•HCl Solution ([2]; starting pH 4.2): 4.2
pH of about 0.95M LDEE•HCl Solution ([2]; starting pH 4.4): 4.4
pH of about 0.48M LDEE•HCl Solution ([2]; starting pH 4.45): 4.45
pH of about 0.48M LDEE•HCl Solution ([2]; starting pH 4.59): 4.59
pH of about 0.95M LDEE•HCl Solution ([2]; starting pH 4.6): 4.6
pH of about 0.48M LDEE•HCl Solution ([2]; starting pH 4.78): 4.78
pH of about 0.95M LDEE•HCl Solution ([2]; starting pH 4.82): 4.82
pH of about 0.48M LDEE•HCl Solution ([2]; starting pH 5.01): 5.01
pH of about 0.95M LDEE•HCl Solution ([2]; starting pH 5.01): 5.01
pH of about 0.95M LDEE•HCl Solution ([2]; starting pH 5.3): 5.3
pH of about 0.48M LDEE•HCl Solution ([2]; starting pH 5.31): 5.31
